“And” between values parts separate entries of the source, which are not always exact repeats. Equal entries are not always repeated. Where a SMILES comes first, the peptide text is derived from it. [ ]: non-standard residue; d: D form. Hyp = O=C(O)[C@@H]1C[C@@H](O)CN1
Experiments:
CCL4/MIP-1 beta = test: Example 8 main study Luminex, LPS hPBMCs: CCL4/MIP-1 beta; format: cell-based, human; details: for LPS-induced CCL-4 (in words): at as low as 5 μM, LPS 5 ug/mL 24 hrs
Method: (§1) Human PBMCs were pretreated with YY-101, YDE-011, YDE-043 or reference compound; Xiidra® at various concentration (ranging from […] to 500 nM) for 2 h before stimulation. An equal volume of 0.5% DMSO was used as a vehicle control. Then, the cells were treated with LPS at 5 ug/ml, which was selected based on the pilot study. The supernatants from treated cells were harvested at 24 h and placed in a 96 well for Luminex cytokine & chemokine profiling using a Luminex 200 multiplex assay (Luminex; R&D system, USA).
(§2) The main study arm with triplicate wells per group in a 24-well plate: • 1. Blank • 2. PBMC: 0.5% DMSO • 3. PBMC+LPS (5 ug/ml) • 4. PBMC+YY-101 500 nM • 5. PBMC+YY-101 50 nM • 6. PBMC+YY-101 5 nM • 7. PBMC+YY-101 0.5 nM • 8. PBMC+LPS (5 ug/ml)+Xiidra® 500 nM • 9. PBMC+LPS (5 ug/ml)+Xiidra® 50 nM • 10. PBMC+LPS (5 ug/ml)+Xiidra® 5 nM • 11. PBMC+LPS (5 ug/ml)+Xiidra® 0.5 nM • 12. PBMC+LPS (5 ug/ml)+Xiidra® 0.05 nM • 13. PBMC+LPS (5 ug/ml)+Xiidra® 0.005 nM • 14. PBMC+LPS (5 ug/ml)+YY-101 500 nM • 15. PBMC+LPS (5 ug/ml)+YY-101 50 nM • 16. PBMC+LPS (5 ug/ml)+YY-101 5 nM • 17. PBMC+LPS (5 ug/ml)+YY-101 0.5 nM • 18. PBMC+LPS (5 ug/ml)+YY-101 0.05 nM • 19. PBMC+LPS (5 ug/ml)+YY-101 0.005 nM • 20. PBMC+LPS (5 ug/ml)+YDE-011 500 nM • 21. PBMC+LPS (5 ug/ml)+YDE-011 50 nM • 22. PBMC+LPS (5 ug/ml)+YDE-011 5 nM • 23. PBMC+LPS (5 ug/ml)+YDE-011 0.5 nM • 24. PBMC+LPS (5 ug/ml)+YDE-011 0.05 nM • 25. PBMC+LPS (5 ug/ml)+YDE-011 0.005 nM • 26. PBMC+LPS (5 ug/ml)+YDE-043 500 nM • 27. PBMC+LPS (5 ug/ml)+YDE-043 50 nM • 28. PBMC+LPS (5 ug/ml)+YDE-043 5 nM • 29. PBMC+LPS (5 ug/ml)+YDE-043 0.5 nM • 30. PBMC+LPS (5 ug/ml)+YDE-043 0.05 nM • 31. PBMC+LPS (5 ug/ml)+YDE-043 0.005 nM
(§3) Multiplex assay was used to measure 30 cytokines and chemokines. The 1:200 diluted cell supernatant and serial dilution of the standard were dispensed into a 96 well plate at 50 ul/well. Then, the pre-mixed cocktail of antibody-coated magnetic beads was dispensed at 50 ul/well and incubated at room temperature for 2 h in a horizontal orbital microplate shaker at 800±500 rpm. The beads were washed using a magnetic device to prevent loss. The biotin-antibody was dispensed in 50 ul of each well and incubated at room temperature for 1 h in a shaker at 800±500 rpm. After washing, streptavidin-PE was added at 50 ul/well and incubated at room temperature for 30 min in a shaker under the same conditions. Finally, after washing, wash buffer (100 ul/well) was added to the plate and incubated in a shaker for 2 min. The Luminex™ 200 setting were set according to the manufacturer's protocol. The data was calculated with a standard five-parameter logistic nonlinear regression analysis of the data (xPonent software 4.2, USA). Results were presented as concentration (ng/ml or pg/ml).

CCL2/MCP-1 = test: Example 8 main study Luminex, LPS hPBMCs: CCL2/MCP-1; format: cell-based, human; details: for CCL2/MCP-1 Concentration: single replicates; for LPS-induced CCL-2 (in words): at as low as 5 μM, LPS 5 ug/mL 24 hrs
Method: as §1, §2, §3

[1] = PBMC + LPS(5 ug/ml) + test article 0.005 nM, Mean
[2] = PBMC + LPS(5 ug/ml) + test article 0.005 nM, single replicates
[3] = PBMC + LPS(5 ug/ml) + test article 0.05 nM, Mean
[4] = PBMC + LPS(5 ug/ml) + test article 0.05 nM, single replicates
[5] = PBMC + LPS(5 ug/ml) + test article 0.5 nM, Mean
[6] = PBMC + LPS(5 ug/ml) + test article 0.5 nM, single replicates
[7] = PBMC + LPS(5 ug/ml) + test article 5 nM, Mean
[8] = PBMC + LPS(5 ug/ml) + test article 5 nM, single replicates
[9] = PBMC + LPS(5 ug/ml) + test article 50 nM, Mean
[10] = PBMC + LPS(5 ug/ml) + test article 50 nM, single replicates
[11] = PBMC + LPS(5 ug/ml) + test article 500 nM, Mean
[12] = PBMC + LPS(5 ug/ml) + test article 500 nM, single replicates
[13] = PBMC + LPS(5 ug/ml) + YDE043 0.005 nM
[14] = PBMC + LPS(5 ug/ml) + YDE043 0.05 nM
[15] = PBMC + LPS(5 ug/ml) + YDE043 0.5 nM
[16] = PBMC + LPS(5 ug/ml) + YDE043 5 nM
[17] = PBMC + LPS(5 ug/ml) + YDE043 50 nM
[18] = PBMC + LPS(5 ug/ml) + YDE043 500 nM
[19] = PBMC + LPS(5 ug/ml) + YDE011 0.005 nM
[20] = PBMC + LPS(5 ug/ml) + YDE011 0.05 nM
[21] = PBMC + LPS(5 ug/ml) + YDE011 0.5 nM
[22] = PBMC + LPS(5 ug/ml) + YDE011 5 nM
[23] = PBMC + LPS(5 ug/ml) + YDE011 50 nM
[24] = PBMC + LPS(5 ug/ml) + YDE011 500 nM

Row | Compound | CCL4/MIP-1 beta Concentration (CCL4/MIP-1 beta; [1]) | CCL4/MIP-1 beta MFI (CCL4/MIP-1 beta; [1]) | CCL4/MIP-1 beta Concentration (CCL4/MIP-1 beta; [2]) | CCL4/MIP-1 beta MFI (CCL4/MIP-1 beta; [2]) | CCL4/MIP-1 beta Concentration (CCL4/MIP-1 beta; [3]) | CCL4/MIP-1 beta MFI (CCL4/MIP-1 beta; [3]) | CCL4/MIP-1 beta Concentration (CCL4/MIP-1 beta; [4]) | CCL4/MIP-1 beta MFI (CCL4/MIP-1 beta; [4]) | CCL4/MIP-1 beta Concentration (CCL4/MIP-1 beta; [5]) | CCL4/MIP-1 beta MFI (CCL4/MIP-1 beta; [5]) | CCL4/MIP-1 beta Concentration (CCL4/MIP-1 beta; [6]) | CCL4/MIP-1 beta MFI (CCL4/MIP-1 beta; [6]) | CCL4/MIP-1 beta Concentration (CCL4/MIP-1 beta; [7]) | CCL4/MIP-1 beta MFI (CCL4/MIP-1 beta; [7]) | CCL4/MIP-1 beta Concentration (CCL4/MIP-1 beta; [8]) | CCL4/MIP-1 beta MFI (CCL4/MIP-1 beta; [8]) | CCL4/MIP-1 beta Concentration (CCL4/MIP-1 beta; [9]) | CCL4/MIP-1 beta MFI (CCL4/MIP-1 beta; [9]) | CCL4/MIP-1 beta Concentration (CCL4/MIP-1 beta; [10]) | CCL4/MIP-1 beta MFI (CCL4/MIP-1 beta; [10]) | also measured
1 | CC(C)C[C@H](NC(=O)[C@H](CCC(N)=O)NC(=O)CNC(=O)[C@@H]1C[C@@H](O)CN1)C(=O)NCC(=O)O [YDE-043] (H-[Hyp]GQLG-OH; N-terminus and C-terminus assumed) | 24223.5 pg/mL | 13.7 | 22956.0 pg/mL and 30013.2 pg/mL and 19701.2 pg/mL | 13.0 and 16.0 and 12.0 | 19701.2 pg/mL | 12.0 | 19701.2 pg/mL | 12.0 | 21871.1 pg/mL | 12.7 | 22956.0 pg/ml (2×) and 19701.2 pg/ml | 13.0 (2×) and 12.0 | 20786.2 pg/mL | 12.3 | 19701.2 pg/ml (2×) and 22956.0 pg/ml | 12.0 (2×) and 13.0 | 21205.1 pg/mL | 12.5 | 22956.0 pg/ml (2×) and 17703.4 pg/ml | 13.0 (2×) and 11.5 | CCL4/MIP-1 beta Concentration (CCL4/MIP-1 beta; [11]): 22762.3 pg/mL; CCL4/MIP-1 beta MFI (CCL4/MIP-1 beta; [11]): 13.0; CCL4/MIP-1 beta Concentration (CCL4/MIP-1 beta; [12]): 25629.7 pg/mL and 22956.0 pg/mL and 19701.2 pg/mL; CCL4/MIP-1 beta MFI (CCL4/MIP-1 beta; [12]): 14.0 and 13.0 and 12.0; LPS-induced CCL-4 (in words) (CCL4/MIP-1 beta): significantly reduced; CCL2/MCP-1 Concentration, Mean (CCL2/MCP-1; [13]): 4629.2 pg/mL; CCL2/MCP-1 Concentration (CCL2/MCP-1; [13]): 4425.5 pg/ml and 4731.0 pg/ml (2×); CCL2/MCP-1 Concentration, Mean (CCL2/MCP-1; [14]): 4545.3 pg/mL; CCL2/MCP-1 Concentration (CCL2/MCP-1; [14]): 4528.4 pg/mL and 4477.1 pg/mL and 4630.2 pg/mL; CCL2/MCP-1 Concentration, Mean (CCL2/MCP-1; [15]): 4390.9 pg/mL; CCL2/MCP-1 Concentration (CCL2/MCP-1; [15]): 4425.5 pg/ml (2×) and 4321.5 pg/ml; CCL2/MCP-1 Concentration, Mean (CCL2/MCP-1; [16]): 4562.3 pg/mL; CCL2/MCP-1 Concentration (CCL2/MCP-1; [16]): 4579.5 pg/mL and 4477.1 pg/mL and 4630.2 pg/mL; CCL2/MCP-1 Concentration, Mean (CCL2/MCP-1; [17]): 4578.9 pg/mL; CCL2/MCP-1 Concentration (CCL2/MCP-1; [17]): 4528.4 pg/mL and 4731.0 pg/mL and 4477.1 pg/mL; CCL2/MCP-1 Concentration, Mean (CCL2/MCP-1; [18]): 4630.2 pg/mL; CCL2/MCP-1 Concentration (CCL2/MCP-1; [18]): 4630.2 pg/mL; LPS-induced CCL-2 (in words) (CCL2/MCP-1): significantly reduced
2 | CC(C)C[C@H](NC(=O)CNC(=O)[C@H](CC(C)C)NC(=O)[C@H](CCC(N)=O)NC(=O)CNC(=O)[C@@H]1C[C@@H](O)CN1)C(=O)N[C@@H](C)C(=O)NCC(=O)N1CCC[C@H]1C(=O)N[C@@H](CCCCN)C(=O)O [YDE-011] (H-[Hyp]GQLGLAGPK-OH) | 20786.2 pg/mL | 12.3 | 19701.2 pg/ml (2×) and 22956.0 pg/ml | 12.0 (2×) and 13.0 | 22956.0 pg/mL | 13.0 | 22956.0 pg/mL | 13.0 | 22956.0 pg/mL | 13.0 | 22956.0 pg/mL | 13.0 | 16738.7 pg/mL | 11.3 | 15257.5 pg/ml (2×) and 19701.2 pg/ml | 11.0 (2×) and 12.0 | 23847.2 pg/mL | 13.3 | 25629.7 pg/ml and 22956.0 pg/ml (2×) | 14.0 and 13.0 (2×) | CCL4/MIP-1 beta Concentration (CCL4/MIP-1 beta; [11]): 13759.1 pg/mL; CCL4/MIP-1 beta MFI (CCL4/MIP-1 beta; [11]): 11.3; CCL4/MIP-1 beta Concentration (CCL4/MIP-1 beta; [12]): 19701.2 pg/ml (2×) and 1874.9 pg/ml; CCL4/MIP-1 beta MFI (CCL4/MIP-1 beta; [12]): 12.0 (2×) and 10.0; LPS-induced CCL-4 (in words) (CCL4/MIP-1 beta): significantly reduced; CCL2/MCP-1 Concentration, Mean (CCL2/MCP-1; [19]): 4425.2 pg/mL; CCL2/MCP-1 Concentration (CCL2/MCP-1; [19]): 4425.5 pg/mL and 4528.4 pg/mL and 4321.5 pg/mL; CCL2/MCP-1 Concentration, Mean (CCL2/MCP-1; [20]): 4442.7 pg/mL; CCL2/MCP-1 Concentration (CCL2/MCP-1; [20]): 4425.5 pg/ml (2×) and 4477.1 pg/ml; CCL2/MCP-1 Concentration, Mean (CCL2/MCP-1; [21]): 4303.7 pg/mL; CCL2/MCP-1 Concentration (CCL2/MCP-1; [21]): 4425.5 pg/mL and 4269.1 pg/mL and 4216.3 pg/mL; CCL2/MCP-1 Concentration, Mean (CCL2/MCP-1; [22]): 4178.7 pg/mL; CCL2/MCP-1 Concentration (CCL2/MCP-1; [22]): 3893.1 pg/ml and 4321.5 pg/ml (2×); CCL2/MCP-1 Concentration, Mean (CCL2/MCP-1; [23]): 4173.5 pg/mL; CCL2/MCP-1 Concentration (CCL2/MCP-1; [23]): 4528.4 pg/mL and 3670.6 pg/mL and 4321.5 pg/mL; CCL2/MCP-1 Concentration, Mean (CCL2/MCP-1; [24]): 4170.5 pg/mL; CCL2/MCP-1 Concentration (CCL2/MCP-1; [24]): 4731.0 pg/mL and 3670.6 pg/mL and 4109.9 pg/mL; LPS-induced CCL-2 (in words) (CCL2/MCP-1): significantly reduced
